How the values were obtained:
Format in all cases: in vivo
[1] = system: male C57/B6 mice; experiment: Remote sensing (telemetric) determination of mice activities; conditions: Table 5, 20 mg/kg p.o., 6 hours after administration, control 2% EtOH
Experimental: Remote sensing determination of mice activities.
Telemetric activity and temperature monitors were surgically implanted sub-coetaneously into male C57/B6 mice under ketamie (Alfasan, batch number: 112319) and xyalsine (Alfasan, batch number: 073210) (75/10 mg/kg, i.p.) anaesthesia to remotely record activity Correct placement was determined using X-ray radiography.

[2] = system: C57/B6 mice; experiment: Pentobarbital (30 mg/kg i.p.) prolonged sleeping time in mice, loss of righting reflex; conditions: 30 mg/kg oral, 30 min prior to sodium pentobarbital 30 mg/kg i.p.; p<0.05, n>4
Experimental: (§1) C57/B6 mice were randomised into groups and orally administered; ECBRC-T2 (30 mg/kg), melatonin (30 mg/kg), Radix Valerianae (140 mg/kg) or vehicle (10 ml/kg H2O), 30 min prior to low dose injection of sodium pentobarbital (30 mg/kg, i/p.). The animals were then placed on a heating pad (37° C.) and their sleep latency to onset of sleep and the duration of sleep determined according to loss of righting reflex.

[3] = system: C57/B6 mice; experiment: Low dose pentobarbital (16 mg/kg i.p.) sleep time in mice, loss of righting reflex; conditions: for mice sleep time: Table 3, sodium pentobarbital 16 mg/kg i.p.
Experimental: as §1, with “pentobarbital (16” for “pentobarbital (30”
C57/B6 mice were randomised into groups and orally administered ECBRC-T1 (10,50,100,500 mg/kg), 30 min prior to low dose injection of sodium pentobarbital (16 mg/kg, i/p.). The animals were then placed on a heating pad (37° C.) and their sleep latency to onset of sleep and the duration of sleep determined according to loss of righting reflex. […]
The animals were then placed on a heating pad (37° C.) and their sleep latency to onset of sleep and the duration of sleep determined according to loss of righting reflex.

Structure (SMILES) | Telemetric Activity (% sleep time ± SEM) [1] [%] | Telemetric Activity (% sleep time ± SEM) ([1]; listed as zopiclone) | sleep time compared with the vehicle control group [2] | Sleep time (min ± SEM) ([3]; Table 1, 30 mg/kg oral, 30 min prior to sodium pentobarbital 16 mg/kg i.p.) [min] | mice sleep time ([3]; 10 mg/kg oral) [n = 4] | mice sleep time ([3]; 20 mg/kg oral) [n = 6] | mice sleep time ([3]; 30 mg/kg oral) [n = 6]
CN1CCN(C(=O)OC2c3nccnc3C(=O)N2c2ccc(Cl)cn2)CC1 (stereo not shown) [Zopiclone, zopiclone] | 66.6 ± 5.1 | significantly extended |  |  |  |  | 
COc1ccc2[nH]cc(CCNC(C)=O)c2c1 [Melatonin, melatonin] |  |  | significantly difference | 63 ± 11 | 31 ± 4 | 63 ± 5 | 68 ± 8
